Laboratory results from BindingDB's records for doi:10.1016/j.ejmech.2014.06.017 (University of Messina, 2014).

assay: Inhibition of PGPH-like activity of 20S proteasome in human erythrocytes using Z-Leu-Leu-Glu-AMC as substrate by fluorescence assay

Compared with CC(C)C[C@H](NC(=O)CCn1ccc2ncccc2c1=O)B(O)O, CC(C)C[C@H](NC(=O)CCn1ccc2ccccc2c1=O)B(O)O is 2.9-fold lower in Ki: 690 nM for the first, 240 nM for the second.

First: CC(C)C[C@H](NC(=O)Cn1ccc2ccccc2c1=O)B(O)O
Second: CC(C)C[C@H](NC(=O)Cn1ccc2ccc(Br)cc2c1=O)B(O)O
The Ki of the first is 3.2-fold higher: 990 nM for the first, 310 nM for the second.

First: COc1cc2ccn(CCC(=O)N[C@@H](CC(C)C)B(O)O)c(=O)c2cc1OC
Second: CC(C)C[C@H](NC(=O)CCn1ccc2ccc(Br)cc2c1=O)B(O)O
The Ki of the first is 1.6-fold lower: 1250 nM for the first, 2040 nM for the second.
